From patent US9132099B2, “Medical implants and methods for regulating the tissue response to vascular closure devices” (Vascular Therapies LLC, priority 2001, dated 2015)
Starred links: 1 amine or outer side, 2 acyl side, 3 side chain; linkers in the order of their positions; H or OH if unused. Positions of bridges follow the written chain, without caps; N, C: chain ends. Non-standard residues stand in square brackets, D forms with d. Residues, ends and D or L forms follow the SMILES beside them. Chains are numbered I, II in the order given. Actinocin(9to1) = Cc1c2oc3c(C)ccc(C(=O)[*:1])c3nc-2c(C(=O)[*:2])c(N)c1=O; NMeV = CN[C@H](C(=O)O)C(C)C; Sar = CNCC(=O)O

Key:
[1] = system: SMC; assay: Smooth muscle cell inhibition on drug-saturated collagen matrix discs; assay type: cell-based; conditions: collagen matrix disc, compound about 5 μg/cm^2, cells counted five days later
Protocol: (§1) Prefabricated collagen matrices were placed in different antiproliferative drug solutions until complete saturation occurred. […] The collagen matrices were saturated with these compounds at a concentration of 25 μg/ml lyophilized, washed with 0.066 M phosphate buffer of pH 7.4 at 37° C. for 24 hours and cut in the shape of a disc with density of compound of about 5 μg/cm^2. After washing, sterile discs 15 mm in diameter were placed in a 24-well culture plate, and cells were seeded at a density of 5,000/cm^2. Five days later, cell number was counted and enzymatic activity evaluated in the aliquots of media by chromogenic substrate hydrolysis and spectrophotometry.

[2] = system: Fibroblast; assay: Fibroblast inhibition on drug-saturated collagen matrix discs; assay type: cell-based; conditions: collagen matrix disc, compound about 5 μg/cm^2, cells counted five days later
Protocol: as §1

[3] = system: Collagenase; assay: Collagenase activity in culture media, chromogenic substrate hydrolysis; assay type: biochemical; conditions: aliquots of media, five days, plain matrix = 100
Protocol: as §1, with “spectrophotometry. Among the tested agents in this comparative in vitro test, paclitaxel and rapamycin (sirolimus) performed similarly.” for “spectrophotometry.”

[4] = system: Elastase; assay: Elastase activity in culture media, chromogenic substrate hydrolysis; assay type: biochemical; conditions: aliquots of media, five days, plain matrix = 100
Protocol: as §1

[5] = system: smooth muscle cells; assay: Growth of smooth muscle cells seeded on collagen matrices; assay type: cell-based; conditions: with changes of media, 7 days observation
Protocol: To evaluate this parameter, smooth muscle cells at a density of 5,000 cells/cm^2 are seeded onto control tissue culture surface and testing matrices.

[6] = In vitro elution of dexamethasone from collagen matrix; conditions: by HPLC
[7] = system: Human Smooth Muscle Cells; assay: [3H]-thymidine uptake assay, human smooth muscle cells; assay type: cell-based
Protocol: (§2) Human smooth muscle cells and endothelial cells (Cambrex Corp., formerly Clonetics Corp., East Rutherford, N.J.) were seeded (100,000 cells) in 24-well plates overnight. Both cell types were grown and maintained in Opti-MEM (Invitrogen, Carlsbad, Calif.) and 5% fetal bovine serum at 37° C. in a 5% carbon dioxide and 95% atmospheric air. […] Each cell type was allowed to grow for […], last four hours in the presence of [^3H]-thymidine.
(§3) Proliferation of cells was quantified as new DNA synthesis using [^3H]-thymidine uptake assay. After 72 hours of culture, cells were washed twice with cold phosphate buffered saline (PBS), and 1 ml of methanol was added to the contents of each well. The plates were kept at 4° C. for 60 minutes, the cells then washed once with cold PBS, and 500 μl of 0.2 m M NaOH was added to each well, and the plates kept at 4° C. for 30 minutes. The contents of each well were transferred into scintillation vials, and liquid scintillation fluid was added to quantify radioactivity using a liquid scintillation counter and the results expressed as counts per minute. Results are shown in Tables 12 and 13 and corresponding FIGS. 16 and 17, respectively.

[8] = system: Human Endothelial Cells; assay: [3H]-thymidine uptake assay, human endothelial cells; assay type: cell-based
Protocol: as §2, §3

[9] = Rate of drug release from collagen matrix in vitro, batch assay; assay type: physicochemical; conditions: collagen matrix saturated with the drug
Protocol: Aliquots are collected at various time intervals from the wells. A combination of dispersed and conjugated forms is also prepared. […] The samples are placed in wells and 1 ml of elution media containing serum are added. Aliquots are taken every hour.
These measurements are made using batch assay and, therefore, represent release rates at 0 ml/min flow rate. The results are tabulated in Table 7 and graphically illustrated in FIG. 14. Concentrations of the antiproliferative drug are in μg/ml.

[10] = system: PTFE vascular graft AV loop, venous anastomosis; assay: Porcine PTFE arterio-venous graft model with perivascular rapamycin collagen sleeve; assay type: in vivo; conditions: pigs
Protocol: A proof of principle study was performed using a porcine model. A total of six pigs were studied, two as controls and four as treated. A 6 mm PTFE vascular graft was anastomosed between the carotid artery on one side and the contralateral jugular vein. This created an arterio-venous (AV) loop that is similar in construction to the human hemodialysis access loop.
The animals were euthanized and the relevant segments dissected. […] Tissues from treated and untreated animals were obtained, and RNA was prepared and reverse transcribed to cDNA, which was amplified for housekeeping gene b-actin and p21 by PCR.

[11] = system: PTFE A-V graft, venous anastamosis; assay: PTFE A-V graft study, histological scoring of graft explants; assay type: in vivo
Source text: A 6.0 mm PTFE graft was anastamosed between the carotid artery and the jugular vein. A total of 19 animals were utilized for this study. At the time of surgical construction of the A-V graft, collagen matrix with or without the drug was implanted at the site of venous anastamosis. Five animals served as controls (Group A, plain collagen matrix, no drug); the remaining 14 animals received treatment. They were divided into two equal groups (B and C) of seven animals each. […] Animals (n=13) were euthanized after 1 month. Tissues were formalin fixed and sent for histology.
Histological assessment of graft explants was performed by examining the following components: (1) the venous anastamotic site; (a) luminal and (b) adventitial surfaces, (2) the venous end away from the anastamosis; (c) luminal and (d) adventitial surfaces and (3) the PTFE graft; (e) luminal and (f) abluminal surfaces away from the anastamosis (FIG. 2). The following parameters were evaluated: intimal thickening, inflammation, thrombus, fibrosis, hemorrhage/fibrin and calcification or any other pathological changes observed. Histological evaluation was scored on a 0 through 4 scale, where 0=no significant change, 1=minimal, 2=mild, 3=moderate and 4=severe.
P-values obtained from semiquantitative analysis of histological findings using ANOVA (t-test unpaired).

[12] = system: smooth muscle cell; assay: Inhibitory concentrations for smooth muscle cell in culture media
[13] = In vitro elution of heparin from collagen-fibrin sleeve with rapamycin and heparin; assay type: physicochemical; conditions: for Eluted Heparin Mass: buffer replenished each day
Source text: Combining macro- and micro-porosity may increase capacity of the device. Collagen and fibrin matrices were mixed to obtain such a combination. In addition, good mechanical characteristics of collagen improved stability of fibrin.
The collagen fibrin sheaths loaded with medicine (thickness 2 mm) were formed as tubular structures and externally crosslinked using high a concentration of glutaraldehyde (25%) for one minute. This sleeve was made planar on ten occasions, and the spiral shape was restored each time. […] In vitro elution of heparin continues for seven days. Heparin concentration was measured as in Example 10. Buffer for the dilution was replenished each day.

[14] = system: smooth muscle cell; assay: Heparin inhibition of smooth muscle cell proliferation; assay type: cell-based
Source text: In addition, diffusion of heparin from the sleeve can prevent thrombotic events on the inner surface of the shunt and damaged vessel wall for longer periods of time. Furthermore, the concentration of soluble heparin can be increased up to 20,000 U/cm^2 without changing the mechanical characteristics of the matrix. Therefore, anti-smooth muscle cell proliferation as well as antithrombotic effect can be prolonged.

Row | Compound | SMC Inhibition % [1] [%] | Fibroblast Inhibition % [2] [%] | Collagenase Activity % [3] [%] | Elastase Activity % [4] [%] | effect on proliferation (new DNA synthesis) [7] | effect on proliferation (new DNA synthesis) [8] | further results
1 | Cc1c2oc3c(C)ccc(C(=O)N[C@@H]4C(=O)N[C@H](C(C)C)C(=O)N5CCC[C@H]5C(=O)N(C)CC(=O)N(C)[C@@H](C(C)C)C(=O)O[C@@H]4C)c3nc-2c(C(=O)N[C@@H]2C(=O)N[C@H](C(C)C)C(=O)N3CCC[C@H]3C(=O)N(C)CC(=O)N(C)[C@@H](C(C)C)C(=O)O[C@@H]2C)c(N)c1=O [Actinomycin D] (I: T[dV]P[Sar][NMeV] / II: T[dV]P[Sar][NMeV]; ester I:1-I:C, II:1-II:C; linker I:N-II:N via Actinocin(9to1)) | 44 ± 11 | 35 ± 8 | 55 ± 9 | 84 ± 11 |  |  | duration of suppression of cell growth [5]: suppresses cell growth for only a short period of time
2 | C[C@@H]1C[C@H]2[C@@H]3CCC4=CC(=O)C=C[C@]4(C)[C@@]3(F)[C@@H](O)C[C@]2(C)[C@@]1(O)C(=O)CO [Dexamethasone] |  |  |  |  |  |  | Chemical stability through sheet formation, drying storage, and elution process [6]: confirmed
3 | CN(Cc1cnc2nc(N)nc(N)c2n1)c1ccc(C(=O)N[C@@H](CCC(=O)O)C(=O)O)cc1 [Methotrexate] | 32 ± 9 | 28 ± 6 | 23 ± 12 | 14 ± 3 |  |  | 
4 | CC(=O)O[C@H]1C(=O)[C@@]2(C)[C@H]([C@H](OC(=O)c3ccccc3)[C@]3(O)C[C@H](OC(=O)[C@H](O)[C@@H](NC(=O)c4ccccc4)c4ccccc4)C(C)=C1C3(C)C)[C@]1(OC(C)=O)CO[C@@H]1C[C@@H]2O [Paclitaxel] | 88 ± 6 | 62 ± 11 | 98 ± 5 | 90 ± 4 | inhibit proliferation | inhibit proliferation | 
5 | CO[C@H]1C[C@@H]2CC[C@@H](C)[C@@](O)(O2)C(=O)C(=O)N2CCCC[C@H]2C(=O)O[C@H]([C@H](C)C[C@@H]2CC[C@@H](O)[C@H](OC)C2)CC(=O)[C@H](C)/C=C(\C)[C@@H](O)[C@@H](OC)C(=O)[C@H](C)C[C@H](C)/C=C/C=C/C=C/1C [Rapamycin, (3S,6R,7E,9R,10R,12R,14S,15E,17E,19E,21S,23S,26R,27R,34aS)-9,10,12,13,14,21,22,23,24,25,26,27,32,33,34,34a-hexadecahydro-9,27-dihydroxy-3-[(1R)-2[(1S,3R,4R)-4-hydroxy-3-methoxycyclohexyl]-1-methylethyl]10,21-dimethoxy-6,8,12,14,20,26-hexamethyl-23,27-epoxy-3H-pyrido[2,1-c][1,4] oxaazacyclohentriacontine-1,5,11,28,29 (4H,6H,31H)-pentone] | 94 ± 5 | 90 ± 12 | 137 ± 8 |  | inhibit proliferation | inhibit proliferation | time of peak release from saturated collagen matrix [9]: about seven; duration of suppression of cell growth [5]: suppression of cell growth continued throughout the observation period; Expression of p21 mRNA in venous tissue at the perianastamotic site ([10]; 30 days, PCR, not in controls): observed; neointimal hyperplasia at venous anastomosis ([10]; collagen sleeve approximately 500 μg/cm^2, 30 days): minimal to absent; luminal patency of the vein and the graft ([10]; collagen sleeve approximately 500 μg/cm^2, 30 days, vs controls): significantly higher luminal patency; Collagen degradation ([11]; Dose 2 compared with the control group): significant; degree of fibrosis ([11]; control group vs. treatment groups): significant difference; degree of inflammation ([11]; treated vs controls): no statistical difference; Inhibitory concentrations for smooth muscle cell [12]: 0.001 to 0.005 µg/mL
6 | C=CC[C@@H]1/C=C(\C)C[C@H](C)C[C@H](OC)[C@H]2O[C@@](O)(C(=O)C(=O)N3CCCC[C@H]3C(=O)O[C@H](/C(C)=C/[C@@H]3CC[C@@H](O)[C@H](OC)C3)[C@H](C)[C@@H](O)CC1=O)[C@H](C)C[C@@H]2OC [Tacrolimus] |  |  |  |  | preferentially inhibit new DNA synthesis in human smooth muscle cells | sparing endothelial cells | 
7 | CN(C)[C@@H]1C(O)=C(C(N)=O)C(=O)[C@@]2(O)C(O)=C3C(=O)c4c(O)cccc4[C@@](C)(O)[C@H]3C[C@@H]12 [Tetracycline] | 11 ± 8 | 13 ± 5 |  |  |  |  | 
8 | Heparin |  |  |  |  |  |  | duration of in vitro elution of heparin [13]: seven; Eluted Heparin Mass ([13]; Time 0 days): 0 u/ml; Eluted Heparin Mass ([13]; Time 1 days): 341 u/ml; Eluted Heparin Mass ([13]; Time 2 days): 275 u/ml; Eluted Heparin Mass ([13]; Time 3 days): 188 u/ml; Eluted Heparin Mass ([13]; Time 4 days): 103 u/ml; Eluted Heparin Mass ([13]; Time 5 days): 57 u/ml; Eluted Heparin Mass ([13]; Time 6 days): 24 u/ml; Eluted Heparin Mass ([13]; Time 7 days): 8 u/ml; time for which eluted heparin can significantly inhibit smooth muscle cell proliferation ([13]; from the elution profile and about 100 u/ml): at least four; concentration that effectively inhibits smooth muscle cell proliferation [14]: about 100 u/ml
